Data on eleven compounds can be found in patent publication US20260138976A1 (Hoffmann-La Roche Inc., priority 2022, published 2026).

For test [1], the system named is primary human T-cells. The test is described as follows: IL2 secretion measurements (24 h, CD3-stimulated T-cells, PBS counter screen). Type of test: cell-based. The following applies: for Emax IL2 (% activation): CD3 condition, normalised to DMSO (neutral) and 20 μM reference compound A1 = 100%; for EC50: Homo sapiens, T-cell, CD3-stimulated primary human T-cells, IL2 secretion, fitted sigmoidal curve, read-out: Tcell IL2 CD3 EC50. The method, then:
As readouts for T-cell activation, 1L2 secretion after 24 hours and proliferation after 5 days was measured. Increases in IL2 secretion and proliferation upon compound treatment were assessed as the % of the maximum of reference compound A1. WO 2016/139181 discloses reference compound A1 as example 70. As a counter screen and to make sure that no unwanted TCR-independent activation was triggered, PBS conditions were run for all compounds.
Expanded primary human T-cells were thawed and cultured in RPMI 1640 (Gibco, #61870-010)+5% human serum (HS, Sigma, #H3667)+1 mM Sodium Pyruvate (Gibco, #11360-039)+50 μM 2-mercaptoethanol (Gibco, #31350-010) and 1× Pen-Strep (Life Technologies, #15140122) medium at density of 2 Mio/ml for 3 hours in 5% CO2, 37° C. and 95% humidity. For coating of plates, […] or PBS++ with CD3 antibody (concentration depending on donor and determined by CD3 titrations) was added 100 μl/well to Poly-D Lysine coated 96-well plates. Plates were sealed and incubated at room temperature for 3 hours on a table-top rocking platform. After incubation, plates were washed once with PBS−− and filled with 40 μl/well culture medium only. Compounds were then added (see next section) to medium only plates. After 3 hours of culturing the T-cells, cells were filtered through a cell strainer (Miltenyi Biotech, #130-041-407), counted again and concentration was adjusted to 1.25 Mio/ml.
Cells were then seeded 80 μl/well to the 40 μl/well including dispensed compounds according to plate layout. By adding cells, compounds were further diluted 1:3, and resulting in 100 k cells/120 μl/well. After 24 hours 40 μl of supernatant was collected carefully from the top while not disturbing the cells and transferred into a round bottom 96 well plate. Collected and frozen supernatant was used for detection of IL2 using the IL-2 Human ProQuantum Immunoassay Kit (Invitrogen) or using the Human IL-2 ELISA Kit (Thermo Fisher).
Compounds were added in a 5 or 6 pt dose response with the Tecan D300e Digital Dispenser, all conditions 3 times more concentrated than the end-concentration, since cells are added afterwards (80 μl cells to 40 μl prepared medium with treatment). The DR was starting at 20 μM or 10 μM final top concentration and a dilution factor of 3.333. The positive control was the reference compound A1 that was added in a dose response as well, additionally to 3 wells of only 20 μM representing the positive stimulator control. All wells were normalized with DMSO to a final concentration of 0.6% (0.2% end-concentration).
The immunoassay is done following the manufacturer's manual (Invitrogen, #A35603). Additional information: For the immunoassay, MicroAmp™ EnduraPlate™ Optical 384-Well plates are used. Frozen supernatant is thawed and centrifuged for 5 minutes at 1000×g, both steps at 4° C. After centrifugation, required sample amount is taken from the top, and in a separate LightCycler V-bottom plate (working plate) diluted with assay dilution buffer, dilution factor depending on the PBS or CD3 condition but at least 1:3. IL-2 standard and blanks are prepared in the same V-bottom plate, standard with a range of 0.0128-5000 pg/ml (extended version). After preparation, 5 μl of sample dilutions or standard/blanks are transferred to the optical 384-well plate (assay plate) and the 10 μl reaction protocol is being followed. For measurement, the QuantStudio 12K Flex system is used. Raw data is extracted and IL-2 concentrations are calculated with the Thermo Fisher online app (apps.thermofisher.com/apps/proquantum).
ELISA is done following the manufacturer's manual (Thermo Fisher Scientific, #88-7025-88). Additional information: For the ELISA Nunc MaxiSorp 96 well plates are used. Frozen supernatant is thawed and centrifuged for 5 minutes at 1000×g, both steps at 4° C. […]

Test [2] concerns primary human T-cells. As to the kind of experiment: Proliferation assay (5 days, CellTiter-Glo, CD3-stimulated T-cells). The format is cell-based. As to conditions: for Emax proliferation (% activation): CD3 condition, normalised to DMSO (neutral) and 20 μM reference compound A1 = 100%; for EC50: Homo sapiens, T-cell, 120 h, CD3-stimulated primary human T-cells, 5 days, CellTiter-Glo, fitted sigmoidal curve, read-out: Tcell Proliferation CD3 EC50. The method in brief:
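Expanded primary human T-cells, 100 k cells/well, were stimulated with plate-coated CD3 antibody (donor-titrated) and given compound in a 5 or 6 pt dose response from 20 μM or 10 μM final top, 0.2% DMSO final. ATP was read by CellTiter-Glo after 5 days. EC50 and Emax were reported as % of 20 μM reference compound A1.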

Turning to `CC1(Nc2nnc(-c3cc4c(cc3F)S(=O)(=O)C[C@H](N)C(=O)N4Cc3ccc(-c4noc(C(F)(F)F)n4)cc3)o2)CC(F)(F)C1` [Example 3, (3R)-3-amino-7-[5-[(3,3-difluoro-1-methyl-cyclobutyl)amino]-1,3,4-oxadiazol-2-yl]-8-fluoro-1,1-dioxo-5-[[4-[5-(trifluoromethyl)-1,2,4-oxadiazol-3-yl]phenyl]methyl]-2,3-dihydro-1λ^6,5-benzothiazepin-4-one], in the test on primary human T-cells [1], the “Emax IL2 (% activation)” value is reported as 594 % activation and the EC50 was 213 nM. In the test with primary human T-cells [2], the “Emax proliferation (% activation)” value was 165 % activation and the EC50 was determined as 795 nM.
The matching figures for `N[C@H]1CS(=O)(=O)c2cc(F)c(-c3nnc(N4CCOC5(CC5)C4)o3)cc2N(Cc2ccc(-c3noc(C(F)(F)F)n3)cc2)C1=O` [Example 4, (3R)-3-amino-8-fluoro-7-[5-(4-oxa-7-azaspiro[2.5]octan-7-yl)-1,3,4-oxadiazol-2-yl]-1,1-dioxo-5-[[4-[5-(trifluoromethyl)-1,2,4-oxadiazol-3-yl]phenyl]methyl]-2,3-dihydro-1λ^6,5-benzothiazepin-4-one]: 220 % activation, 207 nM, 207 % activation and 83.1 nM.
The matching figures for `N[C@H]1CS(=O)(=O)c2cc(F)c(-c3nnc(N4CCC(F)(F)CC4)o3)cc2N(Cc2ccc(-c3noc(C(F)(F)F)n3)cc2)C1=O` [Example 5, (3R)-3-amino-7-[5-(4,4-difluoro-1-piperidyl)-1,3,4-oxadiazol-2-yl]-8-fluoro-1,1-dioxo-5-[[4-[5-(trifluoromethyl)-1,2,4-oxadiazol-3-yl]phenyl]methyl]-2,3-dihydro-1λ^6,5-benzothiazepin-4-one]: 537 % activation, 323 nM, 200 % activation and 120 nM.
Take `COc1ccc(-c2ccc(CN3C(=O)[C@@H](N)CS(=O)(=O)c4cc(F)c(-c5noc(C6(N)COC6)n5)cc43)cc2)cc1` [Example 8, (3R)-3-amino-7-[5-(3-aminooxetan-3-yl)-1,2,4-oxadiazol-3-yl]-8-fluoro-5-[[4-(4-methoxyphenyl)phenyl]methyl]-1,1-dioxo-2,3-dihydro-1λ^6,5-benzothiazepin-4-one]: in the test with primary human T-cells [1], the “Emax IL2 (% activation)” value is on record as 96 % activation and the EC50 is 5600 nM. Also, in the test with primary human T-cells [2], the “Emax proliferation (% activation)” value is recorded as 143 % activation and the EC50 is 3110 nM.
In the case of `N[C@H]1CS(=O)(=O)c2cc(F)c(-c3noc(C4(N)COC4)n3)cc2N(Cc2ccc(-c3noc(C(F)(F)F)n3)cc2)C1=O` [Example 9, (3R)-3-amino-7-[5-(3-aminooxetan-3-yl)-1,2,4-oxadiazol-3-yl]-8-fluoro-1,1-dioxo-5-[[4-[5-(trifluoromethyl)-1,2,4-oxadiazol-3-yl]phenyl]methyl]-2,3-dihydro-1λ^6,5-benzothiazepin-4-one], in the test with primary human T-cells [1], the “Emax IL2 (% activation)” value amounted to 558 % activation and the EC50 amounted to 1100 nM. Further, in the test with primary human T-cells [2], the “Emax proliferation (% activation)” value is 163 % activation and the EC50 was 506 nM.
The matching figures for `N[C@H]1CS(=O)(=O)c2cc(F)c(-c3noc(C4(N)COC4)n3)cc2N(Cc2ccc(-c3ccc(C(F)(F)F)cn3)cc2)C1=O` [Example 10, (3R)-3-amino-7-[5-(3-aminooxetan-3-yl)-1,2,4-oxadiazol-3-yl]-8-fluoro-1,1-dioxo-5-[[4-[5-(trifluoromethyl)-2-pyridyl]phenyl]methyl]-2,3-dihydro-1λ^6,5-benzothiazepin-4-one]: 123 % activation, 9430 nM, 133 % activation and 1920 nM.
As for `N[C@H]1CS(=O)(=O)c2cc(F)c(-c3noc(N4CCOC5(CC5)C4)n3)cc2N(Cc2ccc(-c3ccc(C(F)(F)F)cc3)nc2)C1=O` [Example 11, (3R)-3-amino-8-fluoro-7-[5-(4-oxa-7-azaspiro[2.5]octan-7-yl)-1,2,4-oxadiazol-3-yl]-1,1-dioxo-5-[[6-[4-(trifluoromethyl)phenyl]-3-pyridyl]methyl]-2,3-dihydro-1λ^6,5-benzothiazepin-4-one], in the test with primary human T-cells [1], the “Emax IL2 (% activation)” value was determined as 64 % activation and the EC50 stood at 7700 nM. Besides, in the test with primary human T-cells [2], the “Emax proliferation (% activation)” value amounted to 136 % activation and the EC50 was found to be 1870 nM.
As for `N[C@H]1CS(=O)(=O)c2cc(F)c(-c3noc(N4CCOC(F)(F)C4)n3)cc2N(Cc2ccc(-c3noc(C(F)(F)F)n3)nc2)C1=O` [Example 12, (3R)-3-amino-7-[5-(2,2-difluoromorpholin-4-yl)-1,2,4-oxadiazol-3-yl]-8-fluoro-1,1-dioxo-5-[[6-[5-(trifluoromethyl)-1,2,4-oxadiazol-3-yl]-3-pyridyl]methyl]-2,3-dihydro-1λ^6,5-benzothiazepin-4-one], in the test on primary human T-cells [1], the “Emax IL2 (% activation)” value is reported as 167 % activation and the EC50 was found to be 3050 nM. Moreover, in the test with primary human T-cells [2], the “Emax proliferation (% activation)” value worked out at 125 % activation and the EC50 was 3880 nM.
As to `N[C@H]1CS(=O)(=O)c2cc(F)c(-c3noc(N4CCOC(F)(F)C4)n3)cc2N(Cc2ccc(-c3ccc(C(F)(F)F)cc3)nc2)C1=O` [Example 13, (3R)-3-amino-7-[5-(2,2-difluoromorpholin-4-yl)-1,2,4-oxadiazol-3-yl]-8-fluoro-1,1-dioxo-5-[[6-[4-(trifluoromethyl)phenyl]-3-pyridyl]methyl]-2,3-dihydro-1λ^6,5-benzothiazepin-4-one], in the test on primary human T-cells [1], the “Emax IL2 (% activation)” value is given as 26 % activation and the EC50 is above 10000 nM. In the test with primary human T-cells [2], the “Emax proliferation (% activation)” value was determined as 84 % activation and the EC50 is 1080 nM.
The matching figures for `N[C@H]1CS(=O)(=O)c2cc(F)c(-c3noc(N4CCOC5(CC5)C4)n3)cc2N(Cc2ccc(-c3noc(C(F)(F)F)n3)nc2)C1=O` [Example 14, (3R)-3-amino-8-fluoro-7-[5-(4-oxa-7-azaspiro[2.5]octan-7-yl)-1,2,4-oxadiazol-3-yl]-1,1-dioxo-5-[[6-[5-(trifluoromethyl)-1,2,4-oxadiazol-3-yl]-3-pyridyl]methyl]-2,3-dihydro-1λ^6,5-benzothiazepin-4-one]: 93 % activation, 3990 nM, 96 % activation and 3850 nM.
The matching figures for `N#CC1(c2nc(-c3cc4c(cc3F)S(=O)(=O)C[C@H](N)C(=O)N4Cc3ccc(-c4noc(C(F)(F)F)n4)cc3)no2)CC1` [Example 16, 1-[3-[(3R)-3-amino-8-fluoro-1,1,4-trioxo-5-[[4-[5-(trifluoromethyl)-1,2,4-oxadiazol-3-yl]phenyl]methyl]-2,3-dihydro-1λ^6,5-benzothiazepin-7-yl]-1,2,4-oxadiazol-5-yl]cyclopropanecarbonitrile]: 315 % activation, 368 nM, 228 % activation and 115 nM.
